Measured values: ChEMBL document CHEMBL3137667, “[Drug-induced liver injury; fourteenth updated edition of the bibliographic database of liver injuries and related drugs]” (Gastroenterol Clin Biol, 2004)

Columns and labels:
[1] = Highest frequency of acute liver toxicity observed during clinical trials, expressed as a percentage. [column '% AIGUE' in source]; settings: human
[2] = human, serum
[3] = Times to onset, minimal and maximal, observed in the indexed observations. [column 'DELAI' in source]; settings: human
[4] = human
[5] = human, serum, 4383 h
[6] = human; remark: listed apart in the source
[7] = Highest frequency of moderate liver toxicity observed during clinical trials, expressed as a percentage. [column '% BIOL' in source]; settings: human
[8] = human; remark: listed apart in the source
[9] = human, serum; remark: listed apart in the source
[10] = human; remark: listed apart in the source
[11] = human; remark: listed apart in the source
[12] = Proposed mechanism(s) of liver damage. [column 'MEC' in source]; settings: human
[13] = human; remark: listed apart in the source
[14] = human; remark: listed apart in the source
[15] = human; remark: listed apart in the source
[16] = Presence of at least one case with successful reintroduction. [column 'REINT' in source]; settings: human
[17] = human; remark: listed apart in the source
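Wherever Hepatotoxicity (association with vascular disease) is given: count of indexed literature references reporting vascular liver injury in humans, e.g. peliosis hepatitis, hepatic veno-occlusive disease or Budd-Chiari syndrome.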
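Wherever Hepatotoxicity (benign tumour) is given: value is a count of indexed literature references citing a benign tumour confirmed by histopathology.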
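Wherever Hepatotoxicity (choleostasis) is given: human cholestatic liver injury, shown by histopathology or by peak ALT or AST elevation over alkaline phosphatase ratio below 2, value counts indexed literature reports.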
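Wherever Hepatotoxicity (chronic liver disease) is given: chronic liver injury confirmed by histopathology or persistently raised serum aminotransferase activity beyond 6 months, value given as the count of indexed literature references.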
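Wherever Hepatotoxicity (cirrhosis) is given: value is a count of indexed literature references reporting cirrhosis confirmed by histopathology.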
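Wherever Hepatotoxicity (cytolytic) is given: human cytolytic liver injury, shown by histopathology or by a ratio above 5 of peak ALT or AST elevation to alkaline phosphatase elevation, value counts indexed references.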
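Wherever Hepatotoxicity (granulomatous hepatitis) is given: value is a count of indexed literature references reporting granulomatous liver disease confirmed by histopathology.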
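Wherever Hepatotoxicity (malignant tumour) is given: malignant tumour confirmed by histopathology, value gives the count of indexed literature references reporting it.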
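Wherever Hepatotoxicity (severe hepatitis) is given: human clinical data: severe hepatitis, meaning potentially life-threatening liver failure or clinically observed cases, the value counts how many indexed literature references report it.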
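Wherever Hepatotoxicity (steatosis) is given: steatosis confirmed by histopathology, value is the count of indexed references.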

| Molecule | Hepatotoxicity (acute) [1] | Hepatotoxicity (acute) [2] | Hepatotoxicity (time to onset) [3] | Hepatotoxicity (granulomatous hepatitis) [4] | Hepatotoxicity (chronic liver disease) [5] | Hepatotoxicity (choleostasis) [6] | Hepatotoxicity (moderate) [7] | Hepatotoxicity (benign tumour) [8] | Hepatotoxicity (moderate) [9] | Hepatotoxicity (steatosis) [10] | Hepatotoxicity (cytolytic) [11] | Hepatotoxicity (mechanism) [12] | Hepatotoxicity (cirrhosis) [13] | Hepatotoxicity (severe hepatitis) [14] | Hepatotoxicity (malignant tumour) [15] | Hepatotoxicity (successful reintroduction) [16] | Hepatotoxicity (association with vascular disease) [17] | further results |
| --- | --- | --- | --- | --- | --- | --- | --- | --- | --- | --- | --- | --- | --- | --- | --- | --- | --- | --- |
| Nc1ccc(C(=O)O)c(O)c1 [AMINOSALICYLIC ACID] | 6.4% | 17 | 2 weeks - 2 months | 0 | 0 | 9 | 35.3% | 0 | 6 | 0 | 11 | Allergic | 0 | 6 | 0 | yes | 0 |  |
| Cc1oncc1C(=O)Nc1ccc(C(F)(F)F)cc1 [LEFLUNOMIDE] | 10% | 6 | 4 weeks - 20 months | 0 | 0 | 0 | 56.7% | 0 | 36 | 1 | 5 | Dose-dependant | 1 | 3 | 0 | yes | 0 |  |
| Cc1ncc(CO)c(CO)c1O [PYRIDOXINE] |  | 1 | 2 months |  | 0 |  |  | 0 | 2 | 0 |  |  | 0 |  | 0 | yes | 0 | Hepatotoxicity (acute) ([1]; Liver): 0%; Hepatotoxicity (granulomatous hepatitis) ([4]; Liver): 0; Hepatotoxicity (choleostasis) ([6]; Liver): 0; Hepatotoxicity (moderate) ([7]; Liver): 6%; Hepatotoxicity (cytolytic) ([11]; Liver): 1; Hepatotoxicity (mechanism) ([12]; Liver): Dose-dependant; Hepatotoxicity (severe hepatitis) ([14]; Liver): 0 |
| CCc1nn(CCCN2CCN(c3cccc(Cl)c3)CC2)c(=O)n1CCOc1ccccc1 [NEFAZODONE] | 0% | 16 | 1 week - 2 years | 0 | 0 | 0 | 0% | 0 | 4 | 0 | 14 | Allergic | 0 | 11 | 0 | yes | 0 |  |
| O=C1c2ccccc2C(=O)C1c1ccccc1 [PHENINDIONE] | 0.2% | 13 | 1 week - 2 months | 1 | 0 | 11 | 0% | 0 | 1 | 0 | 3 | Allergic | 0 | 1 | 0 | yes | 0 |  |
| O=C(CCCCC(=O)Nc1c(I)cc(I)c(C(=O)O)c1I)Nc1c(I)cc(I)c(C(=O)O)c1I [IODIPAMIDE] | 0% | 6 | 3 days - 1 week | 0 | 0 | 0 | 18.3% | 0 | 2 | 1 | 6 | Dose-dependant | 0 | 0 | 0 | yes | 0 |  |
| CO[C@]12CC[C@@]3(C[C@@H]1[C@](C)(O)C(C)(C)C)[C@H]1Cc4ccc(O)c5c4[C@@]3(CCN1CC1CC1)[C@H]2O5 [BUPRENORPHINE] | 0% | 3 | 2 days - 3 months | 0 | 0 | 0 | 71% | 0 | 1 | 0 | 2 | Allergic, Overdose | 0 | 2 | 0 | yes | 0 |  |
| Cc1onc(-c2ccccc2Cl)c1C(=O)N[C@@H]1C(=O)N2[C@@H]1SC(C)(C)[C@@H]2C(=O)O [CLOXACILLIN] | 0% | 9 | 2 days - 1 month | 0 | 0 | 8 | 25% | 0 | 5 | 0 | 0 | Allergic | 0 | 0 | 0 | yes | 0 |  |
| INTERFERON GAMMA-1A | 0% | 3 | 6 days - 3 months | 0 | 0 | 0 | 65% | 0 | 50 | 0 | 2 | Dose-dependant | 0 | 1 | 0 | yes | 0 |  |
| CN1C[C@H](CC#N)C[C@@H]2c3cccc4[nH]c(Cl)c(c34)C[C@H]21 [LERGOTRILE] | 15.8% | 5 | 4 days - 5 months | 0 | 0 | 0 | 63.2% | 0 | 6 | 0 | 4 | Dose-dependant | 0 | 0 | 0 | yes | 0 |  |
